Reference: US7241803B2, “Compounds for inhibition of HIV infection by blocking HIV entry” (New York Blood Center, priority 2002, dated 2007)
≈ marks a conversion by molar mass, not a printed value.

Columns and labels:
[1] = tested on: MT-2 & H9/HIV-1IIIB (clade B, X4); assay: cell-cell fusion, dye transfer assay; format: cell-based; settings: MT-2 & H9/HIV-1IIIB (clade B, X4)
Protocol: Inhibition of cell-cell fusion. A dye transfer assay was used for detection of HIV-1 mediated cell fusion as previously described (21, 24, 34). H9/HIV-1IIIB cells were labeled with a fluorescent reagent, Calcein-AM (Molecular Probes, Inc., Eugene, Oreg.) and then incubated with MT-2 cells (ratio=1:5) in 96-well plates at 37° C. for 2 hrs in the presence or absence of compounds tested. The fused and unfused Cacein-labeled HIV-1-infected cells were counted under an inverted fluorescence microscope (Zeiss, Germany) with an eyepiece micrometer disc. The percentage of inhibition of cell fusion and the IC50 values were calculated as previously described (21).

[2] = tested on: gp41 pocket presented on IQN17
Protocol: Inhibition of a biotinylated D-peptide binding to IQN17. For measuring the binding of a D-peptide, D10-p5-2k to IQN17, an ELISA was established. In brief, wells of a 96-well polystyrene plate were coated with IgG (10 μg/ml) purified from rabbit antisera directed against IQN17. The peptide IQN17 (10 μM) was incubated with a compound at graded concentrations at 37° C. for 30 min before addition of the peptide D10-p5-2K-biotin (5 μM). After incubation at 37° C. for 30 min, the mixture was added to the plate, followed by incubation at 37° C. for 30 min. After extensive washes, D10-p5-2K-biotin bound to the IQN17 was quantitated by addition of SA-HRP and TMB sequentially. The absorbance at 450 nm was read using an ELISA reader (Tecan). The percentage of inhibition by the compounds was calculated as described above.

HIV-1 RF (clade B, X4) = assay: infection by laboratory-adapted HIV-1 strain, p24 production; format: cell-based
Protocol: Assessment of anti-HIV-1 infectivity. The inhibitory activity of compounds on infection by laboratory-adapted HIV-1 strains was determined as previously described (18). In brief, 1×10^4 MT-2 cells were infected with HIV-1 at 100 TCID50 (50% tissue culture infective dose) in 200 μl of RPMI 1640 medium containing 10% FBS in the presence or absence of compounds at graded concentrations overnight. For the time-of-addition assay, compounds were added at various time post-infection. Then the culture supernatants were removed and fresh media were added. On the fourth day post-infection, 100 μl of culture supernatants were collected from each well, mixed with equal volumes of 5% Triton X-100 and assayed for p24 antigen, which was quantitated by ELISA (51). Briefly, the wells of polystyrene plates (Immulon 1B, Dynex Technology, Chantilly, Va.) were coated with HIV immunoglobulin (HIVIG), which was prepared from plasma of HIV-seropositive donors with high neutralizing titers against HIV-1IIIB as previously described (44) in 0.085 M carbonate-bicarbonate buffer (pH 9.6) at 4° C. overnight, followed by washes with PBS-T buffer (0.01M PBS containing 0.05% Tween-20) and blocking with PBS containing 1% dry fat-free milk (Bio-Rad Inc., Hercules, Calif.). Virus lysates were added to the wells and incubated at 37° C. for 1 h. […] Absorbance at 450 nm was recorded in an ELISA reader (Ultra 384, Tecan). […]

MT-2 cells = settings: trypan blue, 2 hr
Protocol: Detection of in vitro cytotoxicity. The in vitro cytotoxicity of compounds for MT-2 cells was measured using trypan blue dye exclusion assay (41). Briefly, 100 μl of MT-2 cells (2×10^6/ml) were incubated with an equal volume of a compound diluted in culture media at graded concentrations at 37° C. for 2 hr. Ten microliters of cell suspension was transferred to a well of round-bottom plate and mixed with 10 μl of 0.04% trypan blue solution. The number of viable cells was counted using a hemocytometer under a microscope. The CC50 (the concentration for 50% cytotoxicity) values were calculated using the software Calcusyn (6).

[3] = molecular target: gp41 six-helix bundle formed by N36 and C34 (Human immunodeficiency virus type 1 group M subtype B, UniProt P04578); settings: for inhibitory activity on gp41 six-helix bundle formation (sandwich ELISA): graded concentrations, up to 80 μg/ml, compound preincubated with N36; for inhibition of six-helix bundle formation between N36 and C34 (screening ELISA): single dose 25 μg/ml
Protocol: ELISA for screening for compounds that inhibit the gp41 six-helix bundle formation. A sandwich ELISA as previously described (23) was used to screen for compounds that inhibit the gp41 six-helix bundle formation. Briefly, peptide N36 (2 μM) was pre-incubated with a test compound at the indicated concentrations at 37° C. for 30 min, followed by addition of C34 (2 μM). In the control experiments, N36 was pre-incubated with C34 at 37° C. for 30 min, followed by addition of the test compound. After incubation at 37° C. for 30 min, the mixture was added to wells of a 96-well polystyrene plate (Costar, Corning Inc., Corning, N.Y.) which were precoated with IgG (2 μg/ml) purified from rabbit antisera directed against the N36/C34 mixture. […] Absorbance at 450 nm was measured using an ELISA reader (Ultra 384, Tecan, Research Triangle Park, N.C.). The percent inhibition by the compounds was calculated as previously described (18) and the concentration for 50% inhibition (IC50) was calculated using the software designated Calcusyn (7), kindly provided by Dr. T. C. Chou (Sloan-Kettering Cancer Center, New York, N.Y.).

gp41 six-helix bundle formed by N36 and C34, sequence (P04578 546-581): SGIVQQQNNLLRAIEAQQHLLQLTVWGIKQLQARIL

SMILES	IC50 (μg/ml) for inhibition of cell-cell fusion [1] [µg/mL]	inhibition of biotinylated D10-p5-2K binding to IQN17 [2]	IC50 (μg/ml) for inhibition of p24 production (HIV-1 RF (clade B, X4)) [µg/mL]	CC50 (MT-2 cells) [µg/mL]	inhibitory activity on gp41 six-helix bundle formation (sandwich ELISA) [3]	inhibition of six-helix bundle formation between N36 and C34 (screening ELISA) [3]
Cc1ccc(C)n1-c1ccc(C(=O)O)c(O)c1 [NB-2]	1.53 ± 0.17	significantly inhibited	0.45 ± 0.04	305.60 ± 5.04 (≈ 1320 µM)	significantly inhibited	significantly inhibited
O=C(O)c1cc(-n2cccc2)ccc1Cl [NB-64]	2.02 ± 0.19	significantly inhibited	0.96 ± 0.03	>500	significantly inhibited	significantly inhibited
